Consider 38 molecules from ChEMBL document CHEMBL1154627, “Structure-activity relationship studies of targeting ligands against breast cancer cells” (J Med Chem, 2009).

The experiment in a line: Binding affinity to alpha3beta1 integrin receptor in human MDA-MB-231 cells assessed as inhibition of cell binding to immobilized LXY1 peptide by cell adherence assay. Format: cell-based.
Turning to `NC(=O)C[C@@H]1NC(=O)[C@@H]2C[C@@H](O)CN2C(=O)CNC(=O)[C@H](c2ccc(C(F)(F)F)cc2)NC(=O)CNC(=O)[C@@H](CC(=O)O)NC(=O)[C@H](N)CSSC[C@H](C(N)=O)NC1=O`, the IC50 was more than 25 µM. Under `NC(=O)C[C@@H]1NC(=O)[C@@H]2C[C@@H](O)CN2C(=O)CNC(=O)[C@@H]2SCCN2C(=O)CNC(=O)[C@@H](CC(=O)O)NC(=O)[C@H](N)CSSC[C@H](C(N)=O)NC1=O` stands 10.5 µM; under `NC(=O)C[C@@H]1NC(=O)[C@@H]2C[C@@H](O)CN2C(=O)CNC(=O)[C@H](Cc2cc([N+](=O)[O-])c(O)c([N+](=O)[O-])c2)NC(=O)CNC(=O)[C@@H](CC(=O)O)NC(=O)[C@H](N)CSSC[C@H](C(N)=O)NC1=O`, 11.9 µM. In the case of `CCCCNC(=O)N[C@@H]1CSSC[C@H](C(N)=O)NC(=O)[C@H](CC(N)=O)NC(=O)[C@@H]2C[C@@H](O)CN2C(=O)CNC(=O)[C@H](Cc2ccc(O)c([N+](=O)[O-])c2)NC(=O)CNC(=O)[C@@H](CC(=O)O)NC1=O`, the half-inhibitory concentration (IC50) was more than 25 µM. In the case of `NC(=O)[C@H]1CSSC[C@@H](N)C(=O)N[C@H](CC(=O)O)C(=O)NCC(=O)N[C@@H](Cc2ccc(O)c([N+](=O)[O-])c2)C(=O)NCC(=O)N2C[C@H](O)C[C@H]2C(=O)N[C@@H](CC(=O)O)C(=O)N1`, the IC50 came to 17.1 µM. The value for `NC(=O)C[C@@H]1NC(=O)[C@@H]2C[C@@H](O)CN2C(=O)CNC(=O)[C@H](c2ccccc2[N+](=O)[O-])NC(=O)CNC(=O)[C@@H](CC(=O)O)NC(=O)[C@H](N)CSSC[C@H](C(N)=O)NC1=O` was 19.6 µM. Regarding `NCC[C@@H]1NC(=O)[C@@H]2C[C@@H](O)CN2C(=O)CNC(=O)[C@H](Cc2ccc(O)c([N+](=O)[O-])c2)NC(=O)CNC(=O)[C@@H](CC(=O)O)NC(=O)[C@H](N)CSSC[C@H](C(N)=O)NC1=O`, the IC50 worked out at 13.6 µM. Under `NC(=O)C[C@@H]1NC(=O)[C@@H]2C[C@@H](O)CN2C(=O)CNC(=O)[C@H](CCc2ccc(O)cc2)NC(=O)CNC(=O)[C@@H](CC(=O)O)NC(=O)[C@H](N)CSSC[C@H](C(N)=O)NC1=O` stands more than 25 µM; under `NC(=O)C[C@@H]1NC(=O)[C@@H]2C[C@@H](O)CN2C(=O)CNC(=O)[C@H](Cc2ccc(O)c([N+](=O)[O-])c2)NC(=O)CNC(=O)[C@@H](CC(=O)O)NC(=O)[C@H](NCc2ccc(-c3ccccc3)cc2)CSSC[C@H](C(N)=O)NC1=O`, more than 25 µM; under `CCCCCCN[C@@H]1CSSC[C@H](C(N)=O)NC(=O)[C@H](CC(N)=O)NC(=O)[C@@H]2C[C@@H](O)CN2C(=O)CNC(=O)[C@H](Cc2ccc(O)c([N+](=O)[O-])c2)NC(=O)CNC(=O)[C@@H](CC(=O)O)NC1=O`, more than 25 µM.

Take `NC(=O)C[C@@H]1NC(=O)[C@@H]2C[C@@H](O)CN2C(=O)CNC(=O)[C@H](c2ccccc2Cl)NC(=O)CNC(=O)[C@@H](CC(=O)O)NC(=O)[C@H](N)CSSC[C@H](C(N)=O)NC1=O`: the IC50 amounted to 19 µM. Consider `NC(=O)C[C@@H]1NC(=O)[C@@H]2C[C@@H](O)CN2C(=O)CNC(=O)[C@H](Cc2ccc(O)c([N+](=O)[O-])c2)NC(=O)CNC(=O)[C@@H](CC(=O)O)NC(=O)[C@H](NC(=O)Nc2ccc(-c3ccccc3)cc2)CSSC[C@H](C(N)=O)NC1=O`, for which the IC50 is more than 25 µM.

On to `NC(=O)C[C@@H]1NC(=O)[C@@H]2C[C@@H](O)CN2C(=O)CNC(=O)[C@H](c2cccc(C(F)(F)F)c2)NC(=O)CNC(=O)[C@@H](CC(=O)O)NC(=O)[C@H](N)CSSC[C@H](C(N)=O)NC1=O`, for which the IC50 stood at 11.9 µM. Turning to `NC(=O)C[C@@H]1NC(=O)[C@@H]2C[C@@H](O)CN2C(=O)CNC(=O)[C@H](Cc2ccc(O)c([N+](=O)[O-])c2)NC(=O)CNC(=O)[C@@H](CC(=O)O)NC(=O)[C@H](NC(=O)NC2CCCCC2)CSSC[C@H](C(N)=O)NC1=O`, the IC50 was more than 25 µM. In the case of `NC(=O)C[C@@H]1NC(=O)[C@@H]2C[C@@H](O)CN2C(=O)CNC(=O)[C@H](Cc2ccc(O)c([N+](=O)[O-])c2)NC(=O)CNC(=O)[C@@H](CC(=O)O)NC(=O)[C@H](NC(=O)Nc2ccc(C(F)(F)F)cc2)CSSC[C@H](C(N)=O)NC1=O`, the IC50 was more than 25 µM. For `NC(=O)C[C@@H]1NC(=O)[C@@H]2C[C@@H](O)CN2C(=O)CNC(=O)[C@@H]2CCN2C(=O)CNC(=O)[C@@H](CC(=O)O)NC(=O)[C@H](N)CSSC[C@H](C(N)=O)NC1=O`, the IC50 amounted to 21.4 µM. For the molecule `COc1cc(C[C@@H]2NC(=O)CNC(=O)[C@@H](CC(=O)O)NC(=O)[C@H](N)CSSC[C@H](C(N)=O)NC(=O)[C@H](CC(N)=O)NC(=O)[C@@H]3C[C@@H](O)CN3C(=O)CNC2=O)ccc1O`, the IC50 was more than 25 µM. The value for `NC(=O)C[C@@H]1NC(=O)[C@@H]2C[C@@H](O)CN2C(=O)CNC(=O)[C@H](Cc2ccc(O)c([N+](=O)[O-])c2)NC(=O)CNC(=O)[C@@H](CC(=O)O)NC(=O)[C@H](NCc2ccc(C(F)(F)F)cc2)CSSC[C@H](C(N)=O)NC1=O` was more than 25 µM. With `NC(=O)C[C@@H]1NC(=O)[C@@H]2C[C@@H](O)CN2C(=O)CNC(=O)[C@@H]2CCCN2C(=O)CNC(=O)[C@@H](CC(=O)O)NC(=O)[C@H](N)CSSC[C@H](C(N)=O)NC1=O`, the IC50 stood at 16.9 µM. With `NC(=O)C[C@@H]1NC(=O)[C@@H]2C[C@@H](O)CN2C(=O)CNC(=O)[C@H](Cc2ccc(O)c([N+](=O)[O-])c2)NC(=O)CNC(=O)[C@@H](CC(=O)O)NC(=O)[C@H](NCc2cccnc2)CSSC[C@H](C(N)=O)NC1=O`, the IC50 is more than 25 µM. Under `NC(=O)C[C@@H]1NC(=O)[C@@H]2C[C@@H](O)CN2C(=O)CNC(=O)[C@H](Cc2ccc(O)c([N+](=O)[O-])c2)NC(=O)CNC(=O)[C@@H](CC(=O)O)NC(=O)[C@@H](N)CCCCNC1=O` stands more than 25 µM; under `NC(=O)C[C@@H]1NC(=O)[C@@H]2C[C@@H](O)CN2C(=O)CNC(=O)[C@H](Cc2ccc(O)c(N)c2)NC(=O)CNC(=O)[C@@H](CC(=O)O)NC(=O)[C@H](N)CSSC[C@H](C(N)=O)NC1=O`, more than 25 µM.

As to `NC(=O)C[C@@H]1NC(=O)[C@@H]2C[C@@H](O)CN2C(=O)CNC(=O)[C@H](Cc2ccc(O)c(Cl)c2)NC(=O)CNC(=O)[C@@H](CC(=O)O)NC(=O)[C@H](N)CSSC[C@H](C(N)=O)NC1=O`, the IC50 was 19.8 µM.

Consider `NC(=O)C[C@@H]1NC(=O)[C@@H]2C[C@@H](O)CN2C(=O)CNC(=O)[C@H](Cc2ccc(O)c([N+](=O)[O-])c2)NC(=O)CNC(=O)[C@@H](CC(=O)O)NC(=O)[C@H](N)CNC(=O)C[C@H](C(N)=O)NC1=O`, for which the IC50 is more than 25 µM. `NC(=O)C[C@@H]1NC(=O)[C@@H]2C[C@@H](O)CN2C(=O)CNC(=O)[C@H](Cc2ccc(O)c([N+](=O)[O-])c2)NC(=O)CNC(=O)[C@@H](CC(=O)O)NC(=O)[C@H](N)C/C=C/C[C@H](C(N)=O)NC1=O`: the IC50 is more than 25 µM. Take `CC(C)NC(=O)N[C@@H]1CSSC[C@H](C(N)=O)NC(=O)[C@H](CC(N)=O)NC(=O)[C@@H]2C[C@@H](O)CN2C(=O)CNC(=O)[C@H](Cc2ccc(O)c([N+](=O)[O-])c2)NC(=O)CNC(=O)[C@@H](CC(=O)O)NC1=O`: the IC50 is more than 25 µM. For the molecule `NC(=O)C[C@@H]1NC(=O)[C@@H]2C[C@@H](O)CN2C(=O)CNC(=O)[C@@H]2CCCCN2C(=O)CNC(=O)[C@@H](CC(=O)O)NC(=O)[C@H](N)CSSC[C@H](C(N)=O)NC1=O`, the IC50 came out at 24.1 µM. Consider `NC(=O)C[C@@H]1NC(=O)[C@@H]2C[C@@H](O)CN2C(=O)CNC(=O)[C@@H]2C=CCN2C(=O)CNC(=O)[C@@H](CC(=O)O)NC(=O)[C@H](N)CSSC[C@H](C(N)=O)NC1=O`, for which the IC50 amounted to 15.3 µM.

`NC(=O)C[C@@H]1NC(=O)[C@@H]2C[C@@H](O)CN2C(=O)CNC(=O)[C@H](c2cc(F)c(F)c(F)c2)NC(=O)CNC(=O)[C@@H](CC(=O)O)NC(=O)[C@H](N)CSSC[C@H](C(N)=O)NC1=O`: the IC50 was 5.9 µM. For `CN(C)c1ccc(CN[C@@H]2CSSC[C@H](C(N)=O)NC(=O)[C@H](CC(N)=O)NC(=O)[C@@H]3C[C@@H](O)CN3C(=O)CNC(=O)[C@H](Cc3ccc(O)c([N+](=O)[O-])c3)NC(=O)CNC(=O)[C@@H](CC(=O)O)NC2=O)cc1`, the IC50 was more than 25 µM.

For `CC1(C)SSC(C)(C)[C@H](C(N)=O)NC(=O)[C@H](CC(N)=O)NC(=O)[C@@H]2C[C@@H](O)CN2C(=O)CNC(=O)[C@H](Cc2ccc(O)c([N+](=O)[O-])c2)NC(=O)CNC(=O)[C@@H](CC(=O)O)NC(=O)[C@@H]1N`, the IC50 was more than 25 µM. On to `NC(=O)C[C@@H]1NC(=O)[C@@H]2C[C@@H](O)CN2C(=O)CNC(=O)[C@H](c2ccc(F)c(F)c2)NC(=O)CNC(=O)[C@@H](CC(=O)O)NC(=O)[C@H](N)CSSC[C@H](C(N)=O)NC1=O`, for which the IC50 was 6.3 µM. `CC(C)CN[C@@H]1CSSC[C@H](C(N)=O)NC(=O)[C@H](CC(N)=O)NC(=O)[C@@H]2C[C@@H](O)CN2C(=O)CNC(=O)[C@H](Cc2ccc(O)c([N+](=O)[O-])c2)NC(=O)CNC(=O)[C@@H](CC(=O)O)NC1=O`: the IC50 was more than 25 µM.

`N#Cc1cccc([C@@H]2NC(=O)CNC(=O)[C@@H](CC(=O)O)NC(=O)[C@H](N)CSSC[C@H](C(N)=O)NC(=O)[C@H](CC(N)=O)NC(=O)[C@@H]3C[C@@H](O)CN3C(=O)CNC2=O)c1`: the IC50 was more than 25 µM.

For the molecule `NC(=O)C[C@@H]1NC(=O)[C@@H]2C[C@@H](O)CN2C(=O)CNC(=O)[C@H](Cc2ccc(O)c([N+](=O)[O-])c2)NC(=O)CNC(=O)[C@@H](CC(=O)O)NC(=O)[C@H](NC(=O)CCc2ccccc2)CSSC[C@H](C(N)=O)NC1=O`, the IC50 was more than 25 µM.

On to `NC(=O)C[C@@H]1NC(=O)[C@@H]2C[C@@H](O)CN2C(=O)CNC(=O)[C@H](c2cccc(F)c2)NC(=O)CNC(=O)[C@@H](CC(=O)O)NC(=O)[C@H](N)CSSC[C@H](C(N)=O)NC1=O`, for which the IC50 turned out to be 11.3 µM. As for `NC(=O)C[C@@H]1NC(=O)[C@@H]2C[C@@H](O)CN2C(=O)CNC(=O)[C@H](Cc2ccc(O)c([N+](=O)[O-])c2)NC(=O)CNC(=O)[C@@H](CC(=O)O)NC(=O)[C@H](NCc2ccc(F)c(F)c2)CSSC[C@H](C(N)=O)NC1=O`, the IC50 was more than 25 µM. For `NC(=O)C[C@@H]1NC(=O)[C@@H]2C[C@@H](O)CN2C(=O)CNC(=O)[C@H](Cc2cc(Br)c(O)c(Br)c2)NC(=O)CNC(=O)[C@@H](CC(=O)O)NC(=O)[C@H](N)CSSC[C@H](C(N)=O)NC1=O`, the IC50 was more than 25 µM.

As usually defined, the IC50 is the concentration at which inhibition is half-maximal.
